This is an account of results in patent US20230364121A1 (priority 2020, published 2023).

Molecules are shown by their SMILES. Read-outs that look alike come from different tables or passages of the source. Bounds are passed on as bounds.

For series [1], the target named is T1, SARS-Cov-1 nsp12:7L8:8 polymerase complex (Severe acute respiratory syndrome coronavirus, UniProt P0C6X7). The format is biochemical.
The target in series [2] is T1, SARS-Cov-1 nsp12:7L8:8 polymerase complex. Kind of series: biochemical. In kind it is biochemical.
Series [3] has as its system SARS-CoV and SARS-CoV-2 RTCs. The format is biochemical.
For another series, the target named is nsp12 NiRAN active-site (Severe acute respiratory syndrome coronavirus, UniProt P0C6X7). Kind of series: biochemical. The format is biochemical, SARS-CoV.
The target in a further series is nsp12:7:8 RTC (Severe acute respiratory syndrome coronavirus, UniProt P0C6X7). The format is biochemical, SARS-CoV.
The nature of series [4]: Cytotoxicity in mock infected BHK cells (MTT). The following applies: hamster. In kind it is cell-based, hamster. As to the method:
(§1) To determine the cytotoxicity, cells were seeded at an initial density of 1×10^6 cells/mL in 96 well plates containing Minimum Essential Medium with Earles's salts (MEM-E), L-glutamine, 1 mM sodium pyruvate and 25 mg/L kanamycin, supplemented with 10% fetal bovine serum. Cell cultures were then incubated at 37° C. in a humidified 5% CO2 atmosphere in the absence or presence of serial dilutions of test compounds. Cell viability was determined by the MTT method.
(§2) Uninfected cells in the presence of serially diluted compound were used to assess the cytotoxicity of compounds.

Series [5] concerns HCoV. Kind of series: microbe, parasite or virus in culture. The format is cell-based, human coronavirus.
Another series deals with mock infected BHK cells. Description: Cytotoxicity in mock infected BHK cells (MTT). In kind it is cell-based, hamster. The settings on record: Table 2B; MTT, 3 days. As to the method:
as §1, §2

Series [6] deals with HCoV. Description: microbe, parasite or virus in culture. The format is cell-based, human coronavirus. This is another data set of the same source.
Series [7] in a line: Cytotoxicity in mock infected MES-1 cells (MTT). The settings on record: mock infected MES-1 cells, Table 3A. The format is cell-based. As to the method: as §1
The subject of series [8] is mock infected MES-1 cells. Description: Cytotoxicity in mock infected MES-1 cells (MTT). The format is cell-based. The following applies: Table 3B, 3 days. As to the method:
as §1

The next series deals with HCoV-229E. Kind of series: Virus-induced CPE assay, HCoV-229E in BHK-21 cells (MTT). The format is cell-based. The following applies: Human coronavirus 229E, BHK-21, 72 h, BHK-21; dye staining; 3-day incubation; read-out: EC50. As to the method:
In an initial screening, BHK-21 cells acutely infected with a seasonal human alpha coronavirus, HCoV-229E, were exposed to serial dilutions of Compound 1A.
BHK-21 cells: Test compounds were dissolved in DMSO at 100 mM and then diluted in Minimum Essential Medium with Earle's salts (MEM-E) containing 1 mM sodium pyruvate and 25 μg/mL kanamycin, supplemented with 10% FBS (growth medium) to final concentrations of 100, 20, 4 and 0.8 μM (two […] replica plates each). After BHK-21 cells were grown to confluency in 96-well plates, growth medium was replaced with fresh maintenance medium (growth medium with 1% inactivated FBS in place of 10% FBS) containing serially diluted test compound and HCoV-229E at a multiplicity of infection (MOI) of 0.01. Uninfected cells in the presence of serially diluted compound were used to assess the cytotoxicity of compounds. After a 3-day incubation at 37° C. in a humidified 5% CO2 atmosphere, cell viability was determined by the MTT method (Pauwels, R et al. J. Virol. Methods 20(4):309-321 (1988)).

[9] abbreviates: mock infected BHK cells, Table 2A, MTT, 3 days.
Setting [10] is: unidentified human coronavirus, BHK-21, 72 h.
Where [11] appears, read: unidentified human coronavirus, 72 h.

Consider `C[C@@]1(F)[C@H](O)[C@@H](COP(=O)(O)OP(=O)(O)OP(=O)(O)O)O[C@H]1n1ccc(=O)[nH]c1=O` [2′C-Me 2′F-UTP, reference compound], for which the “incorporation efficacy compared to misincorporation at a U position” value in series [1] was “around 40%”. For the same compound, the EC50 in series [2] was in the range of 20 to 40 µM.
Regarding `C[C@@]1(F)[C@H](O)[C@@H](COP(=O)(O)OP(=O)(O)OP(=O)(O)O)O[C@H]1n1ccc(=O)[nH]c1=O` [STP, 5′-triphosphate 2′-fluoro-2′-C-methyl uridine], the “competition with UTP” value in [3] (5-fold higher concentrations than UTP) and in series [3] (STP: UTP 20:1) was “not competitive” in each case. The “fold less efficient at blocking nsp8 labeling / UMPylation than AT-9010” value on nsp12 NiRAN active-site was roughly 5 fold. Further, the IC50 is 5 ± 0.8 µM against nsp12 NiRAN active-site (IC50 of nsp8 labeling against GTP (FIG. 13C)); 8.2 ± 1.4 µM at nsp12 NiRAN active-site (IC50 of nsp8 labeling against UTP (FIG. 13C)); 4.6 ± 0.2 µM at nsp12 NiRAN active-site (IC50 of nsp8 labeling, competition with UTP (FIG. 13A)). On nsp12:7:8 RTC, the “inhibition of RNA synthesis from poly(C) template” value is “virtually inactive”. In addition, the “discrimination as substrate of the SARS-CoV RDRP” value in series [1] is greater than 250 fold.
`Cn1c[n+]([C@@H]2O[C@H](COP(=O)([O-])OP(=O)(O)OP(=O)(O)O)[C@@H](O)[C@H]2O)c2nc(N)[nH]c(=O)c21` [^m7GTP]: the “inhibition of nsp8 labeling / transfer of UTP to nsp8” value at nsp12 NiRAN active-site is on record as “poorly inhibit”.
Turning to `CNc1nc(N)nc2c1ncn2[C@@H]1O[C@H](CO[P@@](=O)(N[C@@H](C)C(=O)OC(C)C)Oc2ccccc2)[C@@H](O)[C@@]1(C)F` [drawing 232], the CC50 at 3 days in series [4] (setting [9]) is greater than 100 µM. In the series with HCoV [5] (setting [10]), this compound showed an EC50 of 1.6 µM.
For `CNc1nc(N)nc2c1ncn2[C@@H]1O[C@H](CO[P@](=O)(N[C@@H](C)C(=O)OC(C)C)Oc2ccccc2)[C@@H](O)[C@@]1(C)F` [drawing 233], the CC50 at 3 days in [4] (setting [9]) was greater than 100 µM. For the same compound, in the series on HCoV [5] (setting [10]), the 50% effective concentration (EC50) was 2.5 µM.
On the same counts, the results for `CC(C)OC(=O)[C@H](C)N[P@](=O)(OCC1O[C@@H](n2ccc(=O)[nH]c2=O)[C@](C)(F)[C@@H]1O)Oc1ccccc1` (stereo partly drawn) [drawing 234] are greater than 100 µM and greater than 100 µM.
For `CC(C)(CO)C(=O)SCCOP(=O)(NCc1ccccc1)OC[C@H]1O[C@@H](n2cnc3c(=O)[nH]c(N)nc32)[C@](C)(O)[C@@H]1O` (stereo partly drawn) [drawing 236] the same measures were 65 µM and 1.7 µM.
`CCC(CC)COC(=O)[C@H](C)N[P@](=O)(OC[C@H]1O[C@@](C#N)(c2ccc3c(N)ncnn23)[C@H](O)[C@@H]1O)Oc1ccccc1` [drawing 237]: the CC50 at 3 days in series [4] (setting [9]) is greater than 100 µM. In the series with HCoV [5] (setting [10]), this compound yielded an EC50 of 7.2 µM.
For `CC(C)[C@H](N)C(=O)O[C@@H]1[C@@H](CO)O[C@@H](n2ccc(N)nc2=O)[C@]1(C)O` [drawing 238] the same measures were greater than 100 µM and greater than 100 µM.
As for `CNc1nc(N)nc2c1ncn2[C@@H]1O[C@H](CO[P@@](=O)(N[C@@H](C)C(=O)OC(C)C)Oc2ccccc2)[C@@H](O)[C@@]1(C)F` [drawing 239], the CC50 in the series with mock infected BHK cells is greater than 100 µM. In the series on HCoV [5], this compound returned an EC50 of 2 µM.
On the same counts, the results for `CNc1nc(N)nc2c1ncn2[C@@H]1O[C@H](CO[P@](=O)(N[C@@H](C)C(=O)OC(C)C)Oc2ccccc2)[C@@H](O)[C@@]1(C)F` [drawing 240] are greater than 100 µM and 2.9 µM.
For `CC(C)OC(=O)[C@H](C)N[P@](=O)(OCC1O[C@@H](n2ccc(=O)[nH]c2=O)[C@](C)(F)[C@@H]1O)Oc1ccccc1` (stereo partly drawn) [drawing 241] the same measures were greater than 100 µM and greater than 100 µM.
Take `CC(C)(CO)C(=O)SCCOP(=O)(NCc1ccccc1)OC[C@H]1O[C@@H](n2cnc3c(=O)[nH]c(N)nc32)[C@](C)(O)[C@@H]1O` (stereo partly drawn) [drawing 243]: half-maximal cytotoxicity with mock infected BHK cells (CC50) was put at 65 µM. A half-maximal effect with HCoV [5] (EC50) was put at 1.9 µM.
For `CCC(CC)COC(=O)[C@H](C)N[P@](=O)(OC[C@H]1O[C@@](C#N)(c2ccc3c(N)ncnn23)[C@H](O)[C@@H]1O)Oc1ccccc1` [drawing 244] the same measures were greater than 100 µM and 7 µM.
`CC(C)[C@H](N)C(=O)O[C@@H]1[C@@H](CO)O[C@@H](n2ccc(N)nc2=O)[C@]1(C)O` [drawing 245] returned a CC50 in the series on mock infected BHK cells greater than 100 µM.
For the compound `CNc1nc(N)nc2c1ncn2[C@@H]1O[C@H](CO[P@@](=O)(N[C@@H](C)C(=O)OC(C)C)Oc2ccccc2)[C@@H](O)[C@@]1(C)F` [drawing 246], in the series on HCoV [6] (setting [11]), the response was half-maximal at 1.6 µM (EC50). Also, the CC50 at 3 days in series [7] is greater than 100 µM.
On to `CNc1nc(N)nc2c1ncn2[C@@H]1O[C@H](CO[P@](=O)(N[C@@H](C)C(=O)OC(C)C)Oc2ccccc2)[C@@H](O)[C@@]1(C)F` [drawing 247], for which, in the series with HCoV [6] (setting [11]), the midpoint of the response, the EC50, lay at 2 µM. The CC50 at 3 days in [7] is greater than 100 µM.
In turn, `CC(C)OC(=O)[C@H](C)N[P@](=O)(OCC1O[C@@H](n2ccc(=O)[nH]c2=O)[C@](C)(F)[C@@H]1O)Oc1ccccc1` (stereo partly drawn) [drawing 248] returned an EC50 in the series with HCoV [6] (setting [11]) greater than 100 µM. For the same compound, in series [7], the CC50 at 3 days is greater than 100 µM.
Take `CC(C)(CO)C(=O)SCCOP(=O)(NCc1ccccc1)OC[C@H]1O[C@@H](n2cnc3c(=O)[nH]c(N)nc32)[C@](C)(O)[C@@H]1O` (stereo partly drawn) [drawing 250]: the EC50 with HCoV [6] (setting [11]) is 1.9 µM. Besides, in [7], it took 82 µM to reach half-maximal cytotoxicity (CC50 at 3 days).
Turning to `CCC(CC)COC(=O)[C@H](C)N[P@](=O)(OC[C@H]1O[C@@](C#N)(c2ccc3c(N)ncnn23)[C@H](O)[C@@H]1O)Oc1ccccc1` [drawing 251], the EC50 in the series on HCoV [6] (setting [11]) worked out at 6 µM. The same compound showed a CC50 at 3 days in series [7] greater than 100 µM.
`CC(C)[C@H](N)C(=O)O[C@@H]1[C@@H](CO)O[C@@H](n2ccc(N)nc2=O)[C@]1(C)O` [drawing 252] yielded an EC50 with HCoV [6] (setting [11]) greater than 100 µM. The CC50 at 3 days in series [7] is greater than 100 µM.
In the series with HCoV [6], `CNc1nc(N)nc2c1ncn2[C@@H]1O[C@H](CO[P@@](=O)(N[C@@H](C)C(=O)OC(C)C)Oc2ccccc2)[C@@H](O)[C@@]1(C)F` [drawing 253] yielded an EC50 of 2 µM. This compound also showed a CC50 in series [8] greater than 100 µM.
On the same counts, the results for `CNc1nc(N)nc2c1ncn2[C@@H]1O[C@H](CO[P@](=O)(N[C@@H](C)C(=O)OC(C)C)Oc2ccccc2)[C@@H](O)[C@@]1(C)F` [drawing 254] are 2.2 µM and greater than 100 µM.
Turning to `CC(C)OC(=O)[C@H](C)N[P@](=O)(OCC1O[C@@H](n2ccc(=O)[nH]c2=O)[C@](C)(F)[C@@H]1O)Oc1ccccc1` (stereo partly drawn) [drawing 255], in the series with HCoV [6], the EC50 was greater than 100 µM. The CC50 in [8] is greater than 100 µM.
For the compound `CC(C)(CO)C(=O)SCCOP(=O)(NCc1ccccc1)OC[C@H]1O[C@@H](n2cnc3c(=O)[nH]c(N)nc32)[C@](C)(O)[C@@H]1O` (stereo partly drawn) [drawing 257], in the series on HCoV [6], the EC50 worked out at 1.7 µM. The CC50 in series [8] worked out at 82 µM.
For `CCC(CC)COC(=O)[C@H](C)N[P@](=O)(OC[C@H]1O[C@@](C#N)(c2ccc3c(N)ncnn23)[C@H](O)[C@@H]1O)Oc1ccccc1` [drawing 258] the same measures were 5.5 µM and greater than 100 µM.
Compound `CC(C)[C@H](N)C(=O)O[C@@H]1[C@@H](CO)O[C@@H](n2ccc(N)nc2=O)[C@]1(C)O` [drawing 259] registered a CC50 in [8] greater than 100 µM.
As to `CC(C)OC(=O)[C@H](C)N[P@](=O)(OC[C@H]1O[C@@H](n2ccc(=O)[nH]c2=O)[C@](C)(F)[C@@H]1O)Oc1ccccc1` [sofosbuvir, reference compound], the CC50 at 3 days in series [4] (uninfected BHK-21 cells, BHK-21, Table 5) is greater than 100 µM. In addition, the “fold less efficient at blocking nsp8 labeling / UMPylation than AT-9010” value on nsp12 NiRAN active-site is listed as “about 5 fold”. Further, in the series with HCoV-229E, the EC50 was greater than 100 µM.
